Data on 14 compounds can be found in US9540397B2, “BACE1 inhibitors” (Hoffmann-La Roche Inc., priority 2014, dated 2017).

In test [1] the test system is Aβ40 in brain of wild-type mice. Briefly: Lowering of Aβ40 in brain of wild-type mice. To be noted: Mus musculus, po; female C57Bl/6J mice, 30 mg/kg per os, 4 h; brain Aβ40 related to the value in the vehicle group; read-out: Aβ40 (wt mice, brain). Format: in vivo. How it is done:
Lowering of Aβ40 in Brain of Wild-Type Mice:
Animals and Housing Conditions.
Animals were maintained in a 12/12 h light/dark cycle, with lights starting at 6 a.m., and experiments were conducted during the light phase. Animal housing and experimental procedures were in line with ethical and legal guidelines and were authorized by local veterinary authorities.
Experiment. Female C57Bl/6J mice were treated with a dose of 30 mg/kg of the compounds, 3-4 animals per treatment group. The test compound was dissolved in 5% EtOH, 10% Solutol, and was applied per os at 10 mL/kg. After 4 h, the animals were sacrificed and brain and plasma were collected. The brain was cut into halves and immediately frozen on dry ice. Brain was used for measurement of Aβ40 and plasma was used for determination of compound exposure. […] Brain tissue was homogenized in 2% DEA buffer in a Roche MagnaLyser (20″, 4000 rpm) and subsequently centrifuged for 1 h at 100000 g. DEA was reduced to 0.2% in 50 mM NaCl and one-half of the DEA lysate was passed over an Oasis Solid phase extraction plate (Waters; cat. no. 186000679), which had been activated with MeOH and equilibrated in dH2O (1 mL each). After washes in 10% and 30% MeOH (1 mL each), the Aβ-peptides were eluted in 0.8 mL of 2% NH4OH in 90% MeOH. The eluate was dried over a N2 flow, and the dried sample was reconstituted in 30 μL of AlphaLISA assay buffer. Aβ40 was determined by an AlphaLISA assay (Perkin-Elmer). In a white 96-well, half area microplate (Perkin-Elmer cat. no. 6005561), 20 μL of the reconstituted sample were mixed with 5 μL of biotinylated BAP-24 (specific for C-terminus of Aβ40) (Brockhaus, M.; Grunberg, J.; Rohrig, S.; Loetscher, H.; Wittenburg, N.; Baumeister, R.; Jacobsen, H.; Haass, C. Caspasemediated cleavage is not required for the activity of presenilins in amyloidogenesis and NOTCH signaling. NeuroReport 1998, 9, 1481-1486.) stock=4.4 mg/mL, f.c.5.5 μg/mL), and 5 μL 252Q6 acceptor beads (252Q6 antibody, Invitrogen AMB0062) had been previously conjugated with AlphaLISA Acceptor beads (Perkin-Elmer cat. no. 6772002); final dilution 1:500). The mix was incubated for 1 h at RT in the dark. Then 20 μL of Streptavin-coated Donor Beads (Perkin-Elmer cat. no. 6760002, final dilution 1:125) were added and this final mix was incubated in the dark for another 30 min at RT before RFU was measured in an AlphaScreen Reader (Perkin-Elmer Envision 2104). The value obtained for Aβ40 in the treated animals was related to the value in the vehicle group and is given in %. Alternatively a commercial ELISA was used for Aβ40 determination (Wako ELISA: (“Human/Rat β Amyloid (40) ELISA kit Wako II”; cat nr. 294-64701) following the manufacture's instruction. Also here the Aβ-lowering efficacy was calculated as percentage of the vehicle group.

For test [2], the target named is T1, BACE1 (Homo sapiens, UniProt P56817).
T1 construct: endogenous in cells; host or cells: HEK293 APP cells
Briefly: Cellular Aβ-lowering assay (Abeta 40 AlphaLISA, HEK293 APP cells). In kind it is cell-based. To be noted: 18-20 hrs incubation, Aβ40 in culture supernatant, read-out: BACE1 cell act. Aβ40 IC50. On the procedure: Cellular Aβ-lowering assay:
The Abeta 40 AlphaLISA Assay can be used. The HEK293 APP cells were seeded in 96 well Microtiter plates in cell culture medium (Iscove's, plus 10% (v/v) fetal bovine serum, penicillin/streptomycin) to about 80% confluency and the compounds were added at a 3× concentration in ⅓ volume of culture medium (final DMSO concentration was kept at 1% v/v). After 18-20 hrs incubation at 37° C. and 5% CO2 in a humidified incubator, the culture supernatants were harvested for the determination of AP 40 concentrations using Perkin-Elmer Human Amyloid beta 1-40 (high specificity) Kit (Cat#AL275C).
In a Perkin-Elmer White Optiplate-384 (Cat#6007290), 2 ul culture supernatants were combined with 2 μl of a 10× AlphaLISA Anti-hAβ Acceptor beads+Biotinylated Antibody Anti-Aβ 1-40 Mix ([…]/5 nM). After 1 hour room temperature incubation, 16 μl of a 1.25× preparation of Streptavidin (SA) Donor beads (25 μg/mL) were added and incubated for 30 minutes in the Dark. Light Emission at 615 nm was then recorded using EnVision-Alpha Reader. Levels of Aβ 40 in the culture supernatants were calculated as percentage of maximum signal (cells treated with 1% DMSO without inhibitor). The IC50 values were calculated using the Excel XLfit software.
On the technique in general: Alpha assays give light when donor and acceptor beads are brought close together.

Structures are written as SMILES.

As a reminder, the IC50 is the concentration that gives 50% inhibition.

T1 sequence (P56817 46-501): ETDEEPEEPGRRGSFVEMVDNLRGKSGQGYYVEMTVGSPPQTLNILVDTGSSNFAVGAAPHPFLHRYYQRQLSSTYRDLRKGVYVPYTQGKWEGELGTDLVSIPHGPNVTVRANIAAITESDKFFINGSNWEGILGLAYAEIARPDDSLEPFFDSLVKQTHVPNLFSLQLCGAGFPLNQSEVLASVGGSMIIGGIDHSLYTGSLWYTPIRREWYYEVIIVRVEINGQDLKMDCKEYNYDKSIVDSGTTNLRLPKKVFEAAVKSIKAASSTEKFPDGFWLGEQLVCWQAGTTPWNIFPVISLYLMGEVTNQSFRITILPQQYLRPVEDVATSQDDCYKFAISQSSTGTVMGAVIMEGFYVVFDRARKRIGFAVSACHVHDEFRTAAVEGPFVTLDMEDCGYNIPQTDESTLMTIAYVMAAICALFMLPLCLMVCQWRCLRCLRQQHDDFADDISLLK

On to `Cc1cc(F)cnc1C(=O)Nc1ccc(F)c([C@@]2(C)N=C(N)C(C)(C)[S@@]3(=O)=NCC[C@@H]23)n1` [Example 10AB, N-(6-((3aS,4R,8R)-6-amino-4,7,7-trimethyl-8-oxido-3,3a,4,7-tetrahydro-2H-isothiazolo[1,5-a][1,4]thiazin-4-yl)-5-fluoropyridin-2-yl)-5-fluoro-3-methylpicolinamide], for which the response vs control in vivo at 30 mg/kg in test [1] is 71%. The IC50 in test [2] stood at 10 nM.

On to `CC1(C)C(N)=N[C@](C)(c2nc(NC(=O)c3ncc(F)cc3Cl)ccc2F)[C@@H]2CCN=[S@@]21=O` [Example 11AB, N-(6-((3aS,4R,8R)-6-amino-4,7,7-trimethyl-8-oxido-3,3a,4,7-tetrahydro-2H-isothiazolo[1,5-a][1,4]thiazin-4-yl)-5-fluoropyridin-2-yl)-3-chloro-5-fluoropicolinamide], for which the response vs control in vivo at 30 mg/kg in test [1] stood at 100%. The IC50 in test [2] stood at 3.5 nM.

As to `Cc1cc(Cl)cnc1C(=O)Nc1ccc(F)c([C@@]2(C)N=C(N)C(C)(C)[S@@]3(=O)=NCC[C@@H]23)n1` [Example 12AB, N-(6-((3aS,4R,8R)-6-amino-4,7,7-trimethyl-8-oxido-3,3a,4,7-tetrahydro-2H-isothiazolo[1,5-a][1,4]thiazin-4-yl)-5-fluoropyridin-2-yl)-5-chloro-3-methylpicolinamide], in test [1], the response vs control in vivo at 30 mg/kg was determined as 38%. Also, the IC50 in test [2] came out at 1.3 nM.

Regarding `CC1(C)C(N)=N[C@](C)(c2nc(NC(=O)c3ccc(OCF)cn3)ccc2F)[C@@H]2CCN=[S@@]21=O` [Example 13AB, N-(6-((3aS,4R,8R)-6-amino-4,7,7-trimethyl-8-oxido-3,3a,4,7-tetrahydro-2H-isothiazolo[1,5-a][1,4]thiazin-4-yl)-5-fluoropyridin-2-yl)-5-(fluoromethoxy)picolinamide], in test [1], the response vs control in vivo at 30 mg/kg is 86%. Also, in test [2], the IC50 was 9.8 nM.

For `CC1(C)C(N)=N[C@](C)(c2nc(NC(=O)c3ccc(OC(F)F)cn3)ccc2F)[C@@H]2CCN=[S@@]21=O` [Example 14AB, N-(6-((3aS,4R,8R)-6-amino-4,7,7-trimethyl-8-oxido-3,3a,4,7-tetrahydro-2H-isothiazolo[1,5-a][1,4]thiazin-4-yl)-5-fluoropyridin-2-yl)-5-(difluoromethoxy)picolinamide], the response vs control in vivo at 30 mg/kg in test [1] is 61%. Moreover, the IC50 in test [2] was 6.3 nM.

Regarding `CC1(C)C(N)=N[C@](C)(c2nc(NC(=O)c3ccc(OCC(F)(F)C(F)F)cn3)ccc2F)[C@@H]2CCN=[S@@]21=O` [Example 15AB, N-(6-((3aS,4R,8R)-6-amino-4,7,7-trimethyl-8-oxido-3,3a,4,7-tetrahydro-2H-isothiazolo[1,5-a][1,4]thiazin-4-yl)-5-fluoropyridin-2-yl)-5-(2,2,3,3-tetrafluoropropoxy)picolinamide], the response vs control in vivo at 30 mg/kg in test [1] came out at 100%. The IC50 in test [2] is 146 nM.

Turning to `COc1cnc(C(=O)Nc2ccc(F)c([C@@]3(C)N=C(N)C(C)(C)[S@@]4(=O)=NCC[C@@H]34)n2)cn1` [Example 16AB, N-(6-((3aS,4R,8R)-6-amino-4,7,7-trimethyl-8-oxido-3,3a,4,7-tetrahydro-2H-isothiazolo[1,5-a][1,4]thiazin-4-yl)-5-fluoropyridin-2-yl)-5-methoxypyrazine-2-carboxamide], in test [1], the response vs control in vivo at 30 mg/kg worked out at 89%. The IC50 in test [2] was found to be 8.6 nM.

On to `CC1(C)C(N)=N[C@](C)(c2nc(NC(=O)c3ncc(C#N)cc3Cl)ccc2F)[C@@H]2CCN=[S@@]21=O` [Example 25AB, N-(6-((3aS,4R,8R)-6-amino-4,7,7-trimethyl-8-oxido-3,3a,4,7-tetrahydro-2H-isothiazolo[1,5-a][1,4]thiazin-4-yl)-5-fluoropyridin-2-yl)-3-chloro-5-cyanopicolinamide], for which the response vs control in vivo at 30 mg/kg in test [1] was 56%. Besides, in test [2], the IC50 came out at 0.5 nM.

For the compound `CC1(C)C(N)=N[C@](C)(c2nc(NC(=O)c3ncc(C#N)cc3Cl)ccc2F)[C@H]2CCN=[S@]21=O` [Example 25BA, N-(6-((3aR,4R,8S)-6-amino-4,7,7-trimethyl-8-oxido-3,3a,4,7-tetrahydro-2H-isothiazolo[1,5-a][1,4]thiazin-4-yl)-5-fluoropyridin-2-yl)-3-chloro-5-cyanopicolinamide], the response vs control in vivo at 30 mg/kg in test [1] was 117%. Besides, in test [2], the IC50 came out at 15.5 nM.

`CC1(C)C(N)=N[C@](C)(c2nc(NC(=O)c3cnc(OC(F)F)cn3)ccc2F)[C@@H]2CCN=[S@@]21=O` [Example 26AB, N-(6-((3aS,4R,8R)-6-amino-4,7,7-trimethyl-8-oxido-3,3a,4,7-tetrahydro-2H-isothiazolo[1,5-a][1,4]thiazin-4-yl)-5-fluoropyridin-2-yl)-5-(difluoromethoxy)pyrazine-2-carboxamide]: the response vs control in vivo at 30 mg/kg in test [1] was determined as 82%. Also, in test [2], the IC50 was found to be 7.7 nM.

On to `CC1(C)C(N)=N[C@](C)(c2nc(NC(=O)c3ccc(F)cn3)ccc2F)[C@@H]2CCN=[S@@]21=O` [Example 27AB, N-(6-((3aS,4R,8R)-6-amino-4,7,7-trimethyl-8-oxido-3,3a,4,7-tetrahydro-2H-isothiazolo[1,5-a][1,4]thiazin-4-yl)-5-fluoropyridin-2-yl)-5-fluoropicolinamide], for which the response vs control in vivo at 30 mg/kg in test [1] came to 92%. In test [2], the IC50 came to 15 nM.

For `CC1(C)C(N)=N[C@](C)(c2nc(NC(=O)c3ncc(OC(F)F)cc3Cl)ccc2F)[C@@H]2CCN=[S@@]21=O` [Example 28AB, N-(6-((3aS,4R,8R)-6-amino-4,7,7-trimethyl-8-oxido-3,3a,4,7-tetrahydro-2H-isothiazolo[1,5-a][1,4]thiazin-4-yl)-5-fluoropyridin-2-yl)-3-chloro-5-(difluoromethoxy)picolinamide], in test [1], the response vs control in vivo at 30 mg/kg is 100%. Moreover, the IC50 in test [2] came to 2.8 nM.

Take `CC1(C)C(N)=N[C@](C)(c2nc(NC(=O)c3ncc(Cl)cc3Cl)ccc2F)[C@@H]2CCN=[S@@]21=O` [Example 29AB, N-(6-((3aS,4R,8R)-6-amino-4,7,7-trimethyl-8-oxido-3,3a,4,7-tetrahydro-2H-isothiazolo[1,5-a][1,4]thiazin-4-yl)-5-fluoropyridin-2-yl)-3,5-dichloropicolinamide]: the response vs control in vivo at 30 mg/kg in test [1] was 88%. For the same compound, the IC50 in test [2] stood at 0.6 nM.

For `Cc1cc(C#N)cnc1C(=O)Nc1ccc(F)c([C@@]2(C)N=C(N)C(C)(C)[S@@]3(=O)=NCC(F)(F)C[C@H]23)n1` [Example 32AA, N-(6-((4aR,5R,9R)-7-amino-3,3-difluoro-5,8,8-trimethyl-9-oxido-2,3,4,4a,5,8-hexahydro-[1,4]thiazino[2,1-f][1,2]thiazin-5-yl)-5-fluoropyridin-2-yl)-5-cyano-3-methylpicolinamide], the response vs control in vivo at 30 mg/kg in test [1] is 53%. Moreover, the IC50 in test [2] amounted to 1.2 nM.
